# From article PMC11647683, “Structural Aspects of Mycobacterium tuberculosis DNA Gyrase Targeted by Novel Bacterial Topoisomerase Inhibitors” (ACS Medicinal Chemistry Letters, 2024)
# Read-outs that look alike come from different tables or passages of the source.
# What was measured:
# [1] = target: T1, M. tuberculosis DNA gyrase (Mycobacterium tuberculosis, UniProt P9WG47); assay: biochemical; conditions: M. tuberculosis DNA gyrase supercoiling, 100 nM compound
# T1 construct: purchased Inspiralis (Norwich, UK)
# [2] = target: T1, M. tuberculosis DNA gyrase; assay: biochemical; format: biochemical
# M. tuberculosis H37Rv [3] = assay: microbe, parasite or virus in culture; format: cell-based; conditions: Mycobacterium tuberculosis; for IC90: read-out: Antituberculosis activity M. tuberculosis H37Rv IC90; for IC50: read-out: Antituberculosis activity M. tuberculosis H37Rv IC50
# M. tuberculosis H37Rv [4] = conditions: calculated from the published MIC value ref 26; cited from earlier work
# hERG = hERG (Homo sapiens, UniProt Q12809)
# [5] = Assay 1 (single determination), read-out: M. tuberculosis gyrase supercoiling IC50, Assay 1
# [6] = Assay 2 (single determination), read-out: M. tuberculosis gyrase supercoiling IC50, Assay 2
# [7] = supercoiling assay, mean of two independent measurements ± SD, read-out: Enzyme inhibition M. tuberculosis DNA gyrase IC50
# [8] = reference wild-type strain, 90% inhibition of bacteria growth, mean of two independent measurements ± SD
# [9] = M. tuberculosis gyrase supercoiling IC50, Assay 1, Assay 1 (single determination)
# [10] = M. tuberculosis gyrase supercoiling IC50, Assay 2, Assay 2 (single determination)
# T1 sequence (P9WG45 whole entry): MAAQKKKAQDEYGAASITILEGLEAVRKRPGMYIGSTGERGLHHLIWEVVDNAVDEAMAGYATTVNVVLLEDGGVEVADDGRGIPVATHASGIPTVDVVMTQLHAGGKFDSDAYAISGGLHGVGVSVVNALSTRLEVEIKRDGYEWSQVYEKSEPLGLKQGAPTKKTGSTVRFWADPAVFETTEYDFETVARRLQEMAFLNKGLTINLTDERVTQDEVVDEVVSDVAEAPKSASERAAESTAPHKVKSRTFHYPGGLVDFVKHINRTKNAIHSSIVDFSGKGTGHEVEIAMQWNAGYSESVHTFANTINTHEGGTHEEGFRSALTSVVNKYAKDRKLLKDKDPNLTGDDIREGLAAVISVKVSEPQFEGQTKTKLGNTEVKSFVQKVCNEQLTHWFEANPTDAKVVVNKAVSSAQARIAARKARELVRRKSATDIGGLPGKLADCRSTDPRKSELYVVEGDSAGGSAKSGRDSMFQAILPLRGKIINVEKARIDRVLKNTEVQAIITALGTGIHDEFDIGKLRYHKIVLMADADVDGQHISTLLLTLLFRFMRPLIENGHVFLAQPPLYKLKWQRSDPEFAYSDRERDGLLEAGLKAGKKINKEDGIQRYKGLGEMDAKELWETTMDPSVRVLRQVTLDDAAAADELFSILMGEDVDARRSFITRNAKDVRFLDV
# T1 sequence (P9WG47 whole entry): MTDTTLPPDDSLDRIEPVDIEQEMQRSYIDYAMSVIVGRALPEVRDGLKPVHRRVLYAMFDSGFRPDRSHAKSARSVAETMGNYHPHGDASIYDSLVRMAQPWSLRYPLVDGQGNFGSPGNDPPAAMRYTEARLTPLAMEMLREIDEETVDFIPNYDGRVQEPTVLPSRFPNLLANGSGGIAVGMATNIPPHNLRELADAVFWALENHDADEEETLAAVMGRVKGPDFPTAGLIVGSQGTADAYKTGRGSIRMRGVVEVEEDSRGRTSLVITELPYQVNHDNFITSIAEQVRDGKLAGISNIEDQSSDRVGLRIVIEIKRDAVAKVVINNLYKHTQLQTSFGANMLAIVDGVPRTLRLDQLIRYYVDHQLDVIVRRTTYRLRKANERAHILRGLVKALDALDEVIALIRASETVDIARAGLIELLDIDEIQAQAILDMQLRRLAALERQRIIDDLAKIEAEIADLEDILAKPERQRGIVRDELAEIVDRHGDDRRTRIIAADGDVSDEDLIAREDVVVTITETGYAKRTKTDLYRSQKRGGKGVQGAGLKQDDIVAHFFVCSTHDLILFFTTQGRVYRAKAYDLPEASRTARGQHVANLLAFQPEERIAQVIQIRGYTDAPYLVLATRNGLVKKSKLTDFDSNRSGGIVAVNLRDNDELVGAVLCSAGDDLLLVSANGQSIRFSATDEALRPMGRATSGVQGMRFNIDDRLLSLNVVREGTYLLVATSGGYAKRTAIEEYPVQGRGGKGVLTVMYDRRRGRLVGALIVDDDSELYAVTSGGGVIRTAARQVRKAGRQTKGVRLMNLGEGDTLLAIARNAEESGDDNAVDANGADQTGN
# Chain of hERG (Q12809 whole entry): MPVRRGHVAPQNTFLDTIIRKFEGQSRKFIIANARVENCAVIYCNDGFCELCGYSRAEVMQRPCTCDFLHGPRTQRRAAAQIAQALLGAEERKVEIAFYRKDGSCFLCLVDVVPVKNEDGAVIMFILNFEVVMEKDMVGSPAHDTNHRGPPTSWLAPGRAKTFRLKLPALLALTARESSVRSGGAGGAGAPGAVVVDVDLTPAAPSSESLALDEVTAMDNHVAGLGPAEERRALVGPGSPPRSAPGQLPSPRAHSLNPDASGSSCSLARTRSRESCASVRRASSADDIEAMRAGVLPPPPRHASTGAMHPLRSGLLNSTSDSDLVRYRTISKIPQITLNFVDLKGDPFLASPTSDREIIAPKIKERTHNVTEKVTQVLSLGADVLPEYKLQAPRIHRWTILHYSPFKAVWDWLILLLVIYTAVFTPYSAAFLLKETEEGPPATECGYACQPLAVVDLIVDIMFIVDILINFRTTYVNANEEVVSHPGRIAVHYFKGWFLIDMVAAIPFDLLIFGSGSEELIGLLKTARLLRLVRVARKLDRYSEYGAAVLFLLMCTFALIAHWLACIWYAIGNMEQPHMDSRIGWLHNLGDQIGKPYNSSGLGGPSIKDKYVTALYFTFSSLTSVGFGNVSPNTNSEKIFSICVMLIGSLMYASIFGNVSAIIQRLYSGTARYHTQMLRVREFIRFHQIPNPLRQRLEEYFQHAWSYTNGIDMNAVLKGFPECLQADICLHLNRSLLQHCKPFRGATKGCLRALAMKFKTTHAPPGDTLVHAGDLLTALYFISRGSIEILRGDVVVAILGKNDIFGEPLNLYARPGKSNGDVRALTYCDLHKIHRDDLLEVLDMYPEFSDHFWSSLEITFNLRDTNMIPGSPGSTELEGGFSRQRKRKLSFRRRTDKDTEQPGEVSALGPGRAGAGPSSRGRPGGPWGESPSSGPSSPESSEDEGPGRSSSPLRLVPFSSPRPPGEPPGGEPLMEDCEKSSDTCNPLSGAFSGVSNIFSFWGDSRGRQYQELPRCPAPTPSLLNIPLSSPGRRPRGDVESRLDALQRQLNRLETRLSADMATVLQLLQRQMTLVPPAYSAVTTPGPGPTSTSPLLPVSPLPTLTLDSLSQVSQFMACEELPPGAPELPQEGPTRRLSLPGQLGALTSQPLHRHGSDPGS
Structure (SMILES),inhibition at 0.1 µM [1] [%],other results
C=CCn1cc(CNC2CCN(CCc3ccnc4ccc(OC)nc34)CC2)cn1 [Compound 10],5.13,–
COc1ccc(CNC2CCN(CCc3ccnc4ccc(OC)nc34)CC2)cn1 [Compound 12],0,–
COc1ccc2nccc(OCC3CCC(NCc4cc(F)c(Cl)c(F)c4)CC3)c2n1 (stereo not shown) [Compound 27],41.6,–
COc1ccc2nccc(CCN3CCC(NCc4ccc(I)c(F)c4F)CC3)c2n1 [Compound 21],14.4,–
COc1ccc2nccc(CCN3CCC(NCc4ccccc4)CC3)c2n1 [Compound 13],0,–
COc1ccc2nccc(C(O)CC3CCC(NCc4ccc(Br)cc4)CC3)c2n1 (stereo not shown) [Compound 36],24.9,–
COc1ccc2nccc(OCC3CCC(NCc4ccc(I)c(F)c4)CC3)c2n1 (stereo not shown) [Compound 29],27.8,–
COc1ccc2nccc(CCN3CCC(NCc4ccc(Cl)nc4)CC3)c2n1 [Compound 22],27.3,–
COc1ccc2nccc(CCN3CCC(NCc4cc(F)c(Br)c(F)c4)CC3)c2n1 [Compound 4],99.8,"IC50 [2, 5]: 89 nM; IC50 [2, 6]: 69 nM; IC50 [2, 7]: 79 ± 10 nM; IC90 (M. tuberculosis H37Rv [3]; [8]): 62 ± 4 nM"
COc1ccc2nccc(CCN3CCC(NCc4ccc(Cl)cn4)CC3)c2n1 [Compound 23],0,–
COc1ccc2nccc(CCN3CCC(NCc4cnn(C(C)C)c4)CC3)c2n1 [Compound 9],7.45,–
COc1ccc2nccc(CCN3CCC(NCc4ccc(OC(F)F)c(O)c4)CC3)c2n1 [Compound 7],3.47,–
COc1ccc2nccc(CCN3CCC(NCc4ccc(Br)cc4)CC3)c2n1 [Compound 16],64.1,–
COc1ccc2nccc(CCN3CCC(NCc4ccc(OC(F)F)c(OC)c4)CC3)c2n1 [Compound 6],0,–
"O=c1ccc2ncc(=O)n3c2n1C[C@H]3CN1CCC(NCc2cc3c(cn2)OCCC3)CC1 [Gepotidacin, reference compound]",–,MIC (M. tuberculosis H37Rv [4]): g MIC = 0.86 μM value for Gepotidacin was calculated from the published MIC value.[26] “/” values were not found in the literature.; IC50 (hERG): > 30000 nM
COc1ccc2nccc(CCN3CCC(NCc4ccc(C(F)(F)F)nc4)CC3)c2n1 [Compound 8],27.4,–
COc1ccc2nccc(CCN3CCC(NCc4cc(F)c(Cl)c(F)c4)CC3)c2n1 [Compound 3],90.2,"IC50 [2, 5]: 93 nM; IC50 [2, 6]: 91 nM; IC50 [2, 7]: 92 ± 1 nM; IC50 (hERG): 436 nM; IC50 (M. tuberculosis H37Rv [3]): 71 ± 3 nM; IC90 (M. tuberculosis H37Rv [3]; [8]): 92 ± 8 nM"
COc1ccc2nccc(CCN3CCC(NCc4ccc(N(C)C)cc4)CC3)c2n1 [Compound 11],0,–
COc1ccc2nccc(CCN3CCC(NCc4ccc(Br)c(F)c4)CC3)c2n1 [Compound 1],84.1,"IC50 [2, 9]: 397 nM; IC50 [2, 10]: 330 nM; IC50 [2, 7]: 363 ± 34 nM; IC50 (hERG): 455 nM; IC50 (M. tuberculosis H37Rv [3]): 180 ± 45 nM; IC90 (M. tuberculosis H37Rv [3]; [8]): 200 ± 50 nM"

Structure (SMILES),inhibition at 0.1 µM [1] [%],other results
COc1ccc2nccc(OCC3CCC(NCc4ccc(I)cc4)CC3)c2n1 (stereo not shown) [Compound 26],9.68,–
COc1ccc2nccc(CCN3CCC(NCc4ccc(Br)c(F)c4F)CC3)c2n1 [Compound 19],29.9,–
COc1ccc2nccc(OCC3CCC(NCc4cc(F)c(Br)c(F)c4)CC3)c2n1 (stereo not shown) [Compound 28],23.8,–
COc1ccc2nccc(C(O)CC3CCC(NCc4cc(F)c(Br)c(F)c4)CC3)c2n1 (stereo not shown) [Compound 5],95,"IC50 [2, 5]: 97 nM; IC50 [2, 6]: 96 nM; IC50 ([2]; average of Assay 1 and Assay 2, read-out: M. tuberculosis gyrase supercoiling IC50, Average): 96 nM; IC50 [2, 7]: 96 nM; IC90 (M. tuberculosis H37Rv [3]; [8]): 280 ± 65 nM"
COc1ccc2nccc(CCN3CCC(NCc4ccc(I)cc4)CC3)c2n1 [Compound 17],63.7,–
COc1ccc2nccc(CCN3CCC(NCc4ccc(Cl)cc4)CC3)c2n1 [Compound 15],44.8,–
COc1ccc2nccc(OCC3CCC(NCc4ccc(I)cc4)CO3)c2n1 (stereo not shown) [Compound 32],0.6,–
COc1ccc2nccc(CCN3CCC(NCc4ccc(Cl)c(F)c4)CC3)c2n1 [Compound 18],52.2,–
COc1ccc2nccc(CCN3CCC(NCc4cc(F)c(Br)cc4F)CC3)c2n1 [Compound 20],43.1,–
COc1ccc2nccc(OCC3CCC(NCc4cc(F)c(Cl)c(F)c4)CO3)c2n1 (stereo not shown) [Compound 34],4.3,–
COc1ccc2nccc(CCN3CCC(NCc4ccc(F)cc4)CC3)c2n1 [Compound 14],0,–
COc1ccc2nccc(OCC3CCC(NCc4cc(F)c(Br)c(F)c4)CO3)c2n1 (stereo not shown) [Compound 33],19.3,–
COc1ccc2nccc(CCN3CCC(NCc4ccc(I)c(F)c4)CC3)c2n1 [Compound 2],80.4,"IC50 [2, 9]: 155 nM; IC50 [2, 10]: 56 nM; IC50 [2, 7]: 105 ± 50 nM; IC50 (hERG): 243 nM; IC50 (M. tuberculosis H37Rv [3]): 200 ± 25 nM; IC90 (M. tuberculosis H37Rv [3]; [8]): 270 ± 45 nM"
COc1ccc2nccc(OCC3CCC(NCc4ccc(Cl)cc4)CO3)c2n1 (stereo not shown) [Compound 30],0,–
COc1ccc2nccc(OCC3CCC(NCc4ccc(Br)cc4)CC3)c2n1 (stereo not shown) [Compound 25],0,–
COc1ccc2nccc(OCC3CCC(NCc4ccc(Cl)cc4)CC3)c2n1 (stereo not shown) [Compound 24],4.7 ± 4.7,–
COc1ccc2nccc(OCC3CCC(NCc4ccc(I)c(F)c4)CO3)c2n1 (stereo not shown) [Compound 35],20.3,–
"C[C@H]1COc2c(N3CCN(C)CC3)c(F)cc3c(=O)c(C(=O)O)cn1c23 [Levofloxacin, reference compound]",–,IC50 (M. tuberculosis H37Rv [3]): 590 nM; IC90 (M. tuberculosis H37Rv [3]): 980 nM
COc1ccc2nccc(OCC3CCC(NCc4ccc(Br)cc4)CO3)c2n1 (stereo not shown) [Compound 31],0,–
